The values that follow come from patent US20120165383A1, “INFLAMMATORY EYE DISEASE” (MASSACHUSETTS EYE & EAR INFIRMARY, priority 2004, published 2012).

For data set [1] the following is noted: Phase I trials in various neoplasias; cited from earlier work.
The test system of a further data set is TNF-α. Briefly: Retinal TNF-α levels, ELISA, EIU rats. The data set is classed as in vivo, rat. The settings on record: for LPS-induced increase of TNF-alpha levels in the retina: 1 mg/kg GA i.p. 24 h before LPS, FIG. 6. As for the experimental part: (§1) Materials and Methods: Female Lewis rats received a single intraperitoneal injection of 1 mg/kg GA or vehicle (DMSO). EIU was induced 24 hours later by a footpad injection of 200 mg/kg lipopolysaccharide (LPS).
(§2) Retinal levels of VEGF, TNF-α, and leukocyte total levels of the LPS receptor CD14 were quantified with an ELISA method, whereas membranous CD14 levels were assessed with membrane precipitation and subsequent immunoblotting. For the ELISA, one day after the administration of the LPS rats were euthanized and retinal lysates were prepared on ice in RIPA lysis buffer (1% NP-40, 0.5% deoxycholate (DOC), 1% SDS, 150 mmol/L NaCl, 50 mmol/L Tris-HCl [pH 8.0]) containing sodium fluorid, […], phenylmethylsulfonylfluorid (PMSF), leupeptin and aprotinin. Protein concentration was determined by Bradford assay (Protein Assay, Bio-Rad, Hercules, Calif.). Samples containing the same amount of protein were assayed for their VEGF, TNF-α and CD14 levels with a commercially available kit (R&D systems, CA) as per the instructions of the manufacturer.
(An ELISA detects its analyte on a solid surface through an enzyme-linked reagent.)

A further data set concerns VEGF. Kind of data set: Retinal VEGF levels, ELISA, EIU rats. The settings on record: for LPS-induced increase of VEGF levels in the retina: 1 mg/kg GA i.p. 24 h before LPS, FIG. 5. Format: in vivo, rat. The method, then: as §1, §2
The test system of the next data set is membrane CD14. Kind of data set: Membranous CD14 levels in leukocytes, membrane precipitation and immunoblotting, EIU rats. The data set is classed as in vivo, rat. The settings on record: 1 mg/kg GA i.p. 24 h before LPS, FIG. 2. A general note: A western blot detects proteins with antibodies after separation by electrophoresis.
The test system of data set [2] is myeloperoxidase (MPO) activity. Kind of data set: Leukocyte activation, myeloperoxidase (MPO) activity assay, EIU rats. The settings on record: 1 mg/kg GA i.p. 24 h before LPS, leukocytes from rats with EIU, FIG. 7. The data set is classed as in vivo, rat. The method, then: as §1
(§3) Leukocyte activation was quantified with a myeloperoxidase (MPO) activity assay and blood-retinal barrier breakdown was assessed by Evans Blue extravasation. Animals were anesthetized and Evans blue dye (Sigma) dissolved in normal saline (30 mg/ml) was injected through the tail vein at a dosage of 45 mg/kg body weight. After the dye had circulated for 120 minutes, the chest cavity was opened and blood samples were obtained from the left ventricle to assess the Evans blue plasma concentration. These blood samples were centrifuged at 16,000 g for 5 minutes. […] The absorbance of Evans blue was measured by spectrophotometry as described below. […] The background-subtracted absorbance was determined by measuring each sample at 620 nm (absorbance maximum for Evans blue in formamide) and 740 nm (absorbance minimum). The concentrations of dye in the extracts and the blood samples were calculated using a standard curve of Evans blue in formamide. Blood-ocular barrier breakdown was calculated using the following equation, with results being expressed in microliters of plasma per gram of retina dry weight times hours of dye circulating time. […]

The subject of another data set is CD14. Briefly: Leukocyte total levels of the LPS receptor CD14, EIU rats. The data set is classed as in vivo, rat. The settings on record: 1 mg/kg GA i.p. 24 h before LPS, FIG. 1. As for the experimental part:
as §1, §2

The next data set relates to blood-retinal barrier. Briefly: Blood-retinal barrier breakdown by Evans Blue extravasation, EIU rats. The settings on record: 1 mg/kg GA i.p. 24 h before LPS. Format: in vivo, rat. The method, then:
as §1, §3

Data set [3] relates to leukocyte adhesion. Kind of data set: Leukocyte adhesion ex vivo, concanavalin A lectin staining of retinal flatmounts, EIU rats. The data set is classed as in vivo, rat. The settings on record: 1 mg/kg GA i.p. 24 h before LPS, evaluated 24 h after LPS, FIGS. 9-11. As for the experimental part:
as §1
(§4) Twenty-four hours after the administration of LPS, leukocyte adhesion was evaluated in vitro with quantitative endothelial cell-neutrophil adhesion assays and ex vivo with concanavalin A lectin staining of retinal flatmounts, as follows. After the induction of deep anesthesia in the rat, the chest cavity was opened, and a 14-gauge perfusion cannula was introduced to the left ventricle. The right atrium was opened with a 12-gauge needle to achieve outflow. With the heart providing the motive force, 250 mL/kg PBS was administered from the perfusion cannula to remove erythrocytes and non-adherent leukocytes. […] Lectin staining was followed by 1% bovine serum albumin (BSA)/PBS perfusion for 1 minute, and PBS perfusion alone for 4 minutes, to remove excess concanavalin A. The retinas were flatmounted in a water-based fluorescence anti-fading medium (Fluoromount; Southern Biotechnology, Birmingham, Ala.) and imaged by fluorescence microscopy (Axioplan, FITC filter, 40×; Carl Zeiss, Oberkochen, Germany). […] Leukocyte location was scored as being either arteriolar, venular, or capillary. The total number of adherent leukocytes per retina was counted. […]

In data set [4] the test system is leukocyte adhesion. Kind of data set: Quantitative endothelial cell-neutrophil adhesion assay in vitro, endotoxin-induced uveitis (EIU) rats. Format: cell-based, rat. The settings on record: 1 mg/kg GA i.p. 24 h before LPS; evaluated 24 h after LPS; vs DMSO vehicle. The method, then:
as §1, §4

Data set [5] concerns intercellular adhesion molecule 1 (ICAM-1). Briefly: Retinal ICAM-1 levels, EIU rats. The data set is classed as in vivo, rat. The settings on record: rats with EIU; FIG. 8. The method, then: as §1
A further data set relates to HIF-1α. Kind of data set: Retinal HIF-1α activity, modified ELISA binding assay, EIU rats. The data set is classed as in vivo, rat. The settings on record: 1 mg/kg GA i.p. 24 h before LPS, FIG. 3. The method, then:
as §1
(§5) Retinal activities of NF-κB and HIF-1α were quantified with a modified ELISA method as described in Poulaki et al., Am. J. Pathol. 165(2):457-69 (2004) and Poulaki et al., J. Clin. Invest. 109(6):805-15 (2002). NF-κB activation was analyzed using the Trans-AM NF-κB […] transcription factor assay kit (Active Motif, Carlsbad, Calif.) according to the manufacturer's instructions, as previously described (Mitsiades et al., Proc. Natl. Acad. Sci. USA, 99:14374-14379 (2002); Mitsiades et al., Blood, 99:4525-4530 (2002)). […] Transcription factor binding to the target oligonucleotide was detected by incubation with respective specific primary monoclonal antibodies, visualized by anti-IgG horseradish peroxidase conjugate and developing solution, and quantified at 450 nm with a reference wavelength of 655 nm. Background binding was calculated by adding in selected wells the respective consensus oligonucleotides in excess (20 pmol/well) as soluble competitors that prevented transcription factor binding to the probe immobilized on the plate. […]

A further data set deals with NF-κB. Kind of data set: Retinal NF-κB activity, modified ELISA (Trans-AM), EIU rats. Format: in vivo, rat. The settings on record: 1 mg/kg GA i.p. 24 h before LPS, FIG. 4. As for the experimental part:
as §1, §5

The conditions of data set [6]: attributed to instability; cited from earlier work.
Setting [7] is: stated for 17AAG in the description, no conditions given.

The structures appear in SMILES notation.

Protocol for membrane CD14: Retinal levels of VEGF, TNF-α, and leukocyte total levels of the LPS receptor CD14 were quantified with an ELISA method, whereas membranous CD14 levels were assessed with membrane precipitation and subsequent immunoblotting. […] Protein concentration was determined by Bradford assay (Protein Assay, Bio-Rad, Hercules, Calif.). […]
Neutrophils were isolated from whole blood by density gradient centrifugation with Histopaque® 1083 cell separation media (Sigma, St Louis, Mo.) according to the manufacturer's instructions. […] The preparations contained>85% monocytes as determined by eosin and methylene blue staining (Leukostat Staining System, Fisher Scientific, Pittsburgh, Pa.). […] The samples were cleared by centrifugation (14,000 rpm, 30 min, 40° C.) and assessed for protein concentration. Biotinylated proteins, representing the cell surface proteins, were immunoprecipitated with Streptavidin-agarose for 2 hours at 40° C., electrophoresed in an SDS-PAGE and CD14 levels were detected by Western Blotting as described.

Take `C=CCNC1=C2C[C@@H](C)C[C@H](OC)[C@H](O)[C@@H](C)/C=C(\C)[C@H](OC(N)=O)[C@@H](OC)/C=C\C=C(/C)C(=O)NC(=CC1=O)C2=O` [17AAG, 17-Allylamino-17-demethoxygeldanamycin]: in data set [1], the pharmacokinetic profile entry is recorded as “favorable pharmacokinetic profile”; the side effects entry is “transient and manageable side effects”. The “expression of TNF-α” value in the data set on TNF-α (setting [7]) is recorded as “reduces”. For the same compound, in the data set with VEGF (setting [7]), the “expression of VEGF” value is given as “reduces”.

`COC1=C2C[C@@H](C)C[C@H](OC)[C@H](O)[C@@H](C)/C=C(\C)[C@H](OC(N)=O)[C@@H](OC)/C=C\C=C(/C)C(=O)NC(=CC1=O)C2=O` [Geldanamycin]: the “membrane CD14 levels in leukocytes” value in the data set on membrane CD14 is “decreases”; in the data set on membrane CD14 (listed as GA) it was “significantly decreased”. Besides, the MPO activity entry is given as “significantly suppressed” in data set [2] and “reduces” in [2] (listed as geldanamycin). The entries for the “LPS-induced increase of TNF-alpha levels in the retina” value in the data set on TNF-α and in the data set with TNF-α (listed as geldanamycin) were “significantly suppressed” and “decreases”, respectively. Also, the “LPS-induced increase in total CD14 levels in the leukocytes” value with CD14 is “does not affect”; in the data set with CD14 (listed as GA), “did not reduce”. The “vascular leakage (blood-retinal barrier breakdown)” value in the data set on blood-retinal barrier (FIG. 12) was “significantly suppressed”; with blood-retinal barrier (FIG. 12, listed as geldanamycin) it was “decreases”. In the data set with leukocyte adhesion [3], the “LPS-induced increase in leukocyte adhesion ex vivo” value was “significantly suppressed”. The “LPS-induced increase of VEGF levels in the retina” value with VEGF is listed as “significantly suppressed”; in the data set on VEGF (listed as geldanamycin) it was “decreases”. The “LPS-induced increase in leukocyte adhesion in vitro” value in the data set on leukocyte adhesion [4] is “significantly suppressed”. Further, in data set [5], the “LPS-induced upregulation of retinal ICAM-1 levels” value is “decreases”. In addition, the “LPS-induced increase of HIF-1α activity in the retina” value is given as “significantly suppressed” in the data set on HIF-1α and “decreases” in the data set with HIF-1α (listed as geldanamycin). The “LPS-induced increase of NF-κB activity in the retina” value in the data set on NF-κB is “significantly suppressed”; with NF-κB (listed as geldanamycin), “decreases”.

Consider `C[C@@H]1C[C@H]2O[C@@H]2/C=C\C=C\C(=O)Cc2c(Cl)c(O)cc(O)c2C(=O)O1` [radicicol, Radicicol], for which the activity in animals entry in data set [6] is “little or no activity”.
